Experimental data from patent publication US12637428B2, “Isoquinoline derivatives as SIK2 inhibitors” (Cancer Research Technology Limited, priority 2019, dated 2026).

How the values were obtained:
Assay type in all cases: biochemical
SIK1 = target: T1, SIK1 (Homo sapiens, UniProt P57059); test: SIK1 kinase assay, IMAP fluorescence polarization; settings: 50 or 100 μM ATP, average
T1 construct: purchased Life Technologies
Procedure: (§1) SIK2, SIK1, SIK3, Abl, Src and EPHA2 Kinase Assays
(§2) SIK2, SIK1, SIK3, Abl, Src and EPHA2 assays were performed using an IMAP fluorescence polarization assay format (Molecular Devices Inc.). 0.6-13 nM of each kinase (Life Technologies) was incubated for 60 min at room temperature with 100 nM of either FAM-Abltide, FAM-Srctide or FAM-HDAC protein derived peptide (synthesized by Alta Biosciences, Birmingham UK). Assays were carried out in the presence of 50 or 100 μM ATP in either 20 mM Tris buffer (pH 7.2) containing 4 mM MgCl2, 0.2% BSA and 2 mM DTT (SIK2, SIK1, SIK3, Abl, Src); or 20 mM Tris buffer (pH 8.5) containing 20 mM MgCl2, 0.5% BSA, 0.2% Triton and 5 mM DTT (EPHA2). Typically, dose response analyses were performed over concentration ranges from 0.00005-1 μM. Reactions were stopped by adding 2 assay volumes of 0.25% (v/v) IMAP binding reagent in either an 85:15 ratio (SIK2, SIK1, SIK3, Abl, EPHA2) or 30:70 ratio (Src) of IMAP binding buffers A and B (Molecular Devices). After incubation to allow the detection reagents to bind to the phosphorylated peptide, fluorescence polarization was measured on a Tecan Infinite plate reader at excitation (470 nm) and emission (530 nm) wavelengths. Inhibition was calculated using no inhibitor and no enzyme controls as 0 and 100% inhibition, respectively.
(§3) Table 3 provides details of the inhibitory constant (nM) of compounds of the invention at SIK1, SIK2 and SIK3 and other kinases.

SIK2 = target: T2, SIK2 (Homo sapiens, UniProt Q9H0K1); test: SIK2 kinase assay, IMAP fluorescence polarization; settings: 50 or 100 μM ATP, average
T2 construct: purchased Life Technologies
T2 sequence (Q9H0K1 whole entry): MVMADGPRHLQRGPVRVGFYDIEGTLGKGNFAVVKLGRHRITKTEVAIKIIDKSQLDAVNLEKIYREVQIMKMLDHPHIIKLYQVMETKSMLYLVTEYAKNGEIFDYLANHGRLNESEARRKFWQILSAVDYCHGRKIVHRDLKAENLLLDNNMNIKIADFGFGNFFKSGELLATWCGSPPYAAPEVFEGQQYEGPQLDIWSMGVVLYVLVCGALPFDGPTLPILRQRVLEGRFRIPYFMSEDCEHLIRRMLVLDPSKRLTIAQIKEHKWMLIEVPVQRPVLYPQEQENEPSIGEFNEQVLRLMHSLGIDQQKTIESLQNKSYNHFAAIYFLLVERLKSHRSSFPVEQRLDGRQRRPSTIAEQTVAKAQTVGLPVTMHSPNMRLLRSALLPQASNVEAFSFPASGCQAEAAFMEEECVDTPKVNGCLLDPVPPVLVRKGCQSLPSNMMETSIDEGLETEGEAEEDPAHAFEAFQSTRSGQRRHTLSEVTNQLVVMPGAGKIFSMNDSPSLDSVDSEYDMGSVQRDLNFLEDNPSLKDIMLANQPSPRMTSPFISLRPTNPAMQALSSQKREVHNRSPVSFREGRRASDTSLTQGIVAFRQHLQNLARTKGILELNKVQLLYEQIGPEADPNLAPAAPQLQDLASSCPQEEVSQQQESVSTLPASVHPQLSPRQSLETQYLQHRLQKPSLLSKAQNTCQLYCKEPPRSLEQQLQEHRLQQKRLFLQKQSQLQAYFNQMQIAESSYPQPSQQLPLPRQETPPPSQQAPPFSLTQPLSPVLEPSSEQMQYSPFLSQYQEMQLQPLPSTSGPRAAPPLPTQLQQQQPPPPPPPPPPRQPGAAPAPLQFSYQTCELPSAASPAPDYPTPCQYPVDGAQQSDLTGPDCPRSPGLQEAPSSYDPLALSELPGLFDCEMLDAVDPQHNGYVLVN
Procedure: as §1, §2, §3

SIK3 = target: T3, SIK3 (Homo sapiens, UniProt Q9Y2K2); test: SIK3 kinase assay, IMAP fluorescence polarization; settings: 50 or 100 μM ATP, average
T3 construct: purchased Life Technologies
T3 sequence (Q9Y2K2 whole entry): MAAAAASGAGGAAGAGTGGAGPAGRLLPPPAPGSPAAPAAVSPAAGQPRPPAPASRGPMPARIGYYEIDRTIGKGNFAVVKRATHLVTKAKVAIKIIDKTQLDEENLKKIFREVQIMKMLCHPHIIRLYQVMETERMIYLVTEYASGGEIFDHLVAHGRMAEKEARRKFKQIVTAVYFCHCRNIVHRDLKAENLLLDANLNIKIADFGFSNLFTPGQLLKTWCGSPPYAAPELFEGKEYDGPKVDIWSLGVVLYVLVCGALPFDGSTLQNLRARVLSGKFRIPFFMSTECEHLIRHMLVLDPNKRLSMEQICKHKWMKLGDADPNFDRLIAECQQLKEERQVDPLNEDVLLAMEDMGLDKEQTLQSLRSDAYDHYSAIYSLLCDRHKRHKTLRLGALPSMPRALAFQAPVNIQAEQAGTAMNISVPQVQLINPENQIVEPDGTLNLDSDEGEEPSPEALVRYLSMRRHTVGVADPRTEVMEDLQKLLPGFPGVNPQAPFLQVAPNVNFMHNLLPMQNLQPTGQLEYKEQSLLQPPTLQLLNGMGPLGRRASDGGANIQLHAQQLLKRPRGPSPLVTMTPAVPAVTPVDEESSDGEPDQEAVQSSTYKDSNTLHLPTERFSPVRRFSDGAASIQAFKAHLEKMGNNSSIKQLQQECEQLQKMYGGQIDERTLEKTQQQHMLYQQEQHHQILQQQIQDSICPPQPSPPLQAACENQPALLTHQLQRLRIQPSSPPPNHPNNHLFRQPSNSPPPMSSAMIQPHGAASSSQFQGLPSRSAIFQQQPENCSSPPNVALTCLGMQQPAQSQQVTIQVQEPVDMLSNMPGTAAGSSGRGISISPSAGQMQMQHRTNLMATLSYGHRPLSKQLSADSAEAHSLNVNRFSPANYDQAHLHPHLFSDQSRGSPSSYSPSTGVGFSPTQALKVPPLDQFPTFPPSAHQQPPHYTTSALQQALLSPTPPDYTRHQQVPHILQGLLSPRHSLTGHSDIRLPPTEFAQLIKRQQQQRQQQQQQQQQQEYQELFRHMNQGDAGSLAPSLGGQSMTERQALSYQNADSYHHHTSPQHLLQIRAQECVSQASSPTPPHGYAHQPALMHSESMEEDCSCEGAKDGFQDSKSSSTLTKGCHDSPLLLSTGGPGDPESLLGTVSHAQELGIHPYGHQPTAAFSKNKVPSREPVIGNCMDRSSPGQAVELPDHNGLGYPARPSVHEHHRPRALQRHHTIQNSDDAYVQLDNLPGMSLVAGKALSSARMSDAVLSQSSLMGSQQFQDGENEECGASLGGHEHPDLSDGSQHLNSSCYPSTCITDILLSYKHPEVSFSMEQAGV
Procedure: as §1, §2, §3

EPHA2 = target: T4, EPHA2 (Homo sapiens, UniProt P29317); test: EPHA2 kinase assay, IMAP fluorescence polarization; settings: 50 or 100 μM ATP, Tris pH 8.5, average
T4 construct: purchased Life Technologies
Procedure: as §1, §2, §3

Src = target: T5, Src (Homo sapiens, UniProt P12931); test: Src kinase assay, IMAP fluorescence polarization; settings: 50 or 100 μM ATP, average
T5 construct: purchased Life Technologies
T5 sequence (P12931 whole entry): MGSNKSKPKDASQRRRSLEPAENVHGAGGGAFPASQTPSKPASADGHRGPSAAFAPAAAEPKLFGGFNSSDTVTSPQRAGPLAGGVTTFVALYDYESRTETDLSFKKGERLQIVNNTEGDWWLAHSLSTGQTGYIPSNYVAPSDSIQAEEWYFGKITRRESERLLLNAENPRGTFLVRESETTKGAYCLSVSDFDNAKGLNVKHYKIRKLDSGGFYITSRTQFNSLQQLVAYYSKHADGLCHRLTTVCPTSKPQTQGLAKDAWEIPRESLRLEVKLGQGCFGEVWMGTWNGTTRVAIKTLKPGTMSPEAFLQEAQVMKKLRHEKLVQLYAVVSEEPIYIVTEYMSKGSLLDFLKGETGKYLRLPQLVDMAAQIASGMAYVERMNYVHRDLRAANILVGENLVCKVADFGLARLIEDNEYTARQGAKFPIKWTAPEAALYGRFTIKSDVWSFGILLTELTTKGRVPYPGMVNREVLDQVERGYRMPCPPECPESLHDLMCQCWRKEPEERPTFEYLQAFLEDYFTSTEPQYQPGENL
Procedure: as §1, §2, §3

Abl = target: T6, Abl (Homo sapiens, UniProt P00519); test: Abl kinase assay, IMAP fluorescence polarization; settings: 50 or 100 μM ATP, average
T6 construct: purchased Life Technologies
T6 sequence (P00519 whole entry): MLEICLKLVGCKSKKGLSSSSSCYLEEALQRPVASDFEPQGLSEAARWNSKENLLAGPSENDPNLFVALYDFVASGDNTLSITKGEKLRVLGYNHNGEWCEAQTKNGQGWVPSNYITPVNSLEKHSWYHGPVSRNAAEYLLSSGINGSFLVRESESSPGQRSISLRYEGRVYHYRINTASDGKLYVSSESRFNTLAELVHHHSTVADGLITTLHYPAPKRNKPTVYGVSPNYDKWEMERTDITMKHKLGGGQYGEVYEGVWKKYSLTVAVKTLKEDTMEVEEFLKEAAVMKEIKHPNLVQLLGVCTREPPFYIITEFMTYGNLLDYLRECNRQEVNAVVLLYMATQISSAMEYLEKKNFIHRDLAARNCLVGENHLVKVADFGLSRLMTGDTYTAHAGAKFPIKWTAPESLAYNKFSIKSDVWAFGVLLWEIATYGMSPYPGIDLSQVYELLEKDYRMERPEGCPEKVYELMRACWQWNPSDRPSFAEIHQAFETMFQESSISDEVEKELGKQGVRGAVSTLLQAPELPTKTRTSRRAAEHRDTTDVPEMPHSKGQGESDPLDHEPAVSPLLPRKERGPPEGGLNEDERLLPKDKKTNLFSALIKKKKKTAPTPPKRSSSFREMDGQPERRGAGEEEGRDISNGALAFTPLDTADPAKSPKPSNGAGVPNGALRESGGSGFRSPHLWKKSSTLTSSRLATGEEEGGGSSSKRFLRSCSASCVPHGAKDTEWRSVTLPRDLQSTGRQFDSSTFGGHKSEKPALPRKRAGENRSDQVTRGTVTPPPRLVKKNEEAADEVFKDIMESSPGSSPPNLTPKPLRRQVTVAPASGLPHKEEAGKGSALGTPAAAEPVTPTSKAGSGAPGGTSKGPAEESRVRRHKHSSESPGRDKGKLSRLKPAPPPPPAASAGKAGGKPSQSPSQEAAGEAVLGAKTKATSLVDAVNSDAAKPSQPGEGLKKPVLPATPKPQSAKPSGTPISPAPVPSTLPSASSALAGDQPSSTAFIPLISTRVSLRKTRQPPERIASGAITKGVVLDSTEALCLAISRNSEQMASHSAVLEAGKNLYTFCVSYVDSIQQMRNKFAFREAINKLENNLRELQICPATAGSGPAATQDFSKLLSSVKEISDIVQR
Procedure: as §1, §2, §3

T1 sequence (P57059 whole entry): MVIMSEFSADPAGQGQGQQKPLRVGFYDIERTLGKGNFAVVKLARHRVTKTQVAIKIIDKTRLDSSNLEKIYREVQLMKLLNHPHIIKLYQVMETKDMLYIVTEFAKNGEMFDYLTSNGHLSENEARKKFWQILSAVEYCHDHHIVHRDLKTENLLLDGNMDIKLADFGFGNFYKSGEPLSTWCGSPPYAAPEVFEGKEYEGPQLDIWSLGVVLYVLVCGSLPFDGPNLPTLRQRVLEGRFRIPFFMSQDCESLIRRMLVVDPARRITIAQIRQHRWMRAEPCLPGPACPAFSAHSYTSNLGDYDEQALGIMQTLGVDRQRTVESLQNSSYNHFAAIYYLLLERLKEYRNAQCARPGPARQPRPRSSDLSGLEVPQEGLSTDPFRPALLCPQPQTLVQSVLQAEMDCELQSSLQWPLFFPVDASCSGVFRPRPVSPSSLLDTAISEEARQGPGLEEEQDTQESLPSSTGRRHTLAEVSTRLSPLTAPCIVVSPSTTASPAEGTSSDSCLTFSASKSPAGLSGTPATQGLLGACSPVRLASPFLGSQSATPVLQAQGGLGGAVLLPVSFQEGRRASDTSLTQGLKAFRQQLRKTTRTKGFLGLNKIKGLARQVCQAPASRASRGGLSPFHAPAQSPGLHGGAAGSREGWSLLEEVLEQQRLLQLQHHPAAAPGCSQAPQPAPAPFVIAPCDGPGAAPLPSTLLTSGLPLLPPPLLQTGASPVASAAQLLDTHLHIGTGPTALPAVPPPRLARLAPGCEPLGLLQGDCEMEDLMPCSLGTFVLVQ

| Structure (SMILES) | Ki (SIK1) [nM] | Ki (SIK2) [nM] | Ki (SIK3) [nM] | Ki (EPHA2) [nM] | Ki (Src) [nM] | Ki (Abl) [nM] |
| --- | --- | --- | --- | --- | --- | --- |
| Cc1cccc(F)c1-c1cc2cnc(N)cc2c(NC2CCNCC2)c1F [Example 134, 6-Fluoro-7-(2-fluoro-6-methyl-phenyl)-N5-(4-piperidyl)isoquinoline-3,5-diamine] | 0.558 | 0.132 | 0.452 | 25.1 | 12.3 | 1.94 |
| Cc1cccc(F)c1-c1cc(C(=O)NC2CCNC2)c2cc(N)ncc2c1 (stereo not drawn) [Example 53, 3-amino-7-(2-fluoro-6-methyl-phenyl)-N-pyrrolidin-3-yl-isoquinoline-5-carboxamide] | 12900 | 2770 | > 100000 | > 100000 | > 100000 | 5530 |
| Cc1cccc(F)c1-c1cc(NC2CCNCC2)c2ncncc2c1 [Example 123, 6-(2-Fluoro-6-methyl-phenyl)-N-(4-piperidyl)quinazolin-8-amine] | 2.72 | 1.86 | 6.92 | 216 | > 1000 | > 1000 |
| Cc1cccc(F)c1-c1cc(NC[C@@H]2CCNC2)c2cc(N)ncc2c1 [Example 6, 7-(2-fluoro-6-methyl-phenyl)-N5-[[(3R)-pyrrolidin-3-yl]methyl]isoquinoline-3,5-diamine] | 0.31 | 0.0517 | 0.57 | 49.5 | 145 | 0.298 |
| CCN1CCC(Nc2cc(-c3c(C)cccc3F)c(F)c3cnc(N)cc23)CC1 [Example 118, N5-(1-Ethyl-4-piperidyl)-8-fluoro-7-(2-fluoro-6-methyl-phenyl)isoquinoline-3,5-diamine] | 10.2 | 6.2 | 77 | > 10000 | > 10000 | > 10000 |
| Cc1cccc(F)c1-c1cc(NCC2CCNCC2)c2cc(N)ncc2c1 [Example 8, 7-(2-fluoro-6-methyl-phenyl)-N5-(4-piperidylmethyl)isoquinoline-3,5-diamine] | 0.546 | 0.108 | 1.02 | 5.15 | 16.5 | 1.4 |
| Cc1cccc(Cl)c1-c1cc(NC2CN(C)C2)c2cc(N)ncc2c1 [Example 63, 7-(2-chloro-6-methyl-phenyl)-N5-(1-methylazetidin-3-yl)isoquinoline-3,5-diamine] | 2.01 | 0.998 | 10.1 | 220 | 151 | 104 |
| Cc1cccc(Cl)c1-c1cc(NC2CCN(C)CC2)c2ccncc2c1 [Example 66, 7-(2-chloro-6-methyl-phenyl)-N-(1-methyl-4-piperidyl)isoquinolin-5-amine] | 0.528 | 0.646 | 1.15 | 54.9 | 105 | 58.7 |
| Cc1cccc(F)c1-c1cc(N[C@H]2CC[C@H](O)CC2)c2cc(N)ncc2c1 [Example 109, 4-[[3-amino-7-(2-fluoro-6-methyl-phenyl)-5-isoquinolyl]amino]cyclo hexanol] | 3.76 | 1.6 | 14.9 | > 1000 | 3330 | 74.8 |
| Cc1cccc(F)c1-c1cc2cnc(N)cc2c(NC2CCN(C)CC2)c1F [Example 135, 6-Fluoro-7-(2-fluoro-6-methyl-phenyl)-N5-(1-methyl-4-piperidyl)isoquinoline-3,5-diamine] | 0.361 | 0.0936 | 0.312 | 30.7 | 65.3 | 7.99 |

The next lines start with the values.

| Ki (SIK1) [nM] | Ki (SIK2) [nM] | Ki (SIK3) [nM] | Ki (EPHA2) [nM] | Ki (Src) [nM] | Ki (Abl) [nM] | Structure (SMILES) |
| --- | --- | --- | --- | --- | --- | --- |
| 0.627 | 0.117 | 1.29 | 153 | 40.1 | 1.83 | Cc1cccc(F)c1-c1cc(NCC2CN(C)C2)c2cc(N)ncc2c1 [Example 72, 7-(2-fluoro-6-methyl-phenyl)-N5-[(1-methylazetidin-3-yl)methyl] isoquinoline-3,5-diamine] |
| 0.476 | 0.113 | 4.45 | > 1000 | 306 | 24.6 | CN[C@@H]1CCCN(c2cc(-c3c(C)cccc3F)cc3cnc(N)cc23)C1 [Example 19, 7-(2-fluoro-6-methyl-phenyl)-5-[(3R)-3-(methylamino)-1-piperidyl]isoquinolin-3-amine] |
| 1.17 | 0.486 | 5.67 | > 1000 | 149 | 15.6 | Cc1cccc(F)c1-c1cc(NCC2CCN(C)CC2)c2cc(N)ncc2c1 [Example 71, 7-(2-fluoro-6-methyl-phenyl)-N5-[(1-methyl-4-piperidyl)methyl] isoquinoline-3,5-diamine] |
| 0.461 | 0.101 | 0.765 | 66.1 | > 1000 | 0.505 | Cc1cccc(F)c1-c1cc(NC[C@@H]2CCN(C)C2)c2cc(N)ncc2c1 [Example 74, 7-(2-fluoro-6-methyl-phenyl)-N5-[[(3S)-1-methylpyrrolidin-3-yl]methyl]isoquinoline-3,5-diamine] |
| 0.354 | 0.0703 | 0.231 | 644 | 138 | 7.79 | Cc1cccc(F)c1-c1cc(N[C@@H]2CCNC2)c2cc(N)ncc2c1 [Example 4, 7-(2-fluoro-6-methyl-pheny)-N5-[(3R)-pyrrolidin-3-yl]isoquinoline-3,5-diamine] |
| 0.498 | 0.0693 | 0.528 | 251 | 98.1 | 6.45 | Cc1cccc(F)c1-c1cc(NC[C@H]2CCCN2C)c2cc(N)ncc2c1 [Example 73, 7-(2-fluoro-6-methyl-phenyl)-N5-[[(2R)-1-methylpyrrolidin-2-yl]methyl] isoquinoline-3,5-diamine] |
| 0.678 | 0.0546 | 0.473 | > 1000 | > 1000 | 12.3 | Cc1cccc(F)c1-c1cc(C2CCN(C)CC2)c2cc(N)ncc2c1 [Example 117, 7-(2-Fluoro-6-methyl-phenyl)-5-(1-methyl-4-piperidyl)isoquinolin-3-amine] |
| 0.433 | 0.0935 | 1.6 | 119 | 43.3 | 6.85 | Cc1cccc(F)c1-c1cc(NC[C@@H]2CCCCN2C)c2cc(N)ncc2c1 [Example 78, 7-(2-fluoro-6-methyl-phenyl)-N5-[[(2S)-1-methyl-2-piperidyl]methyl]isoq uinoline-3,5-diamine] |
| 1.46 | 0.219 | 5.27 | > 1000 | 274 | 24.6 | Cc1cccc(F)c1-c1cc(OC2CN(C)C2)c2cc(N)ncc2c1 [Example 102, 7-(2-fluoro-6-methyl-phenyl)-5-(1-methylazetidin-3-yl)oxy-isoquinolin-3-amine] |
| 0.302 | 0.0395 | 0.0838 | 24.6 | 163 | 0.341 | Cc1cccc(F)c1-c1cc(N[C@H]2CCCNC2)c2cc(N)ncc2c1 [Example 26, 7-(2-fluoro-6-methyl-phenyl)-N5-[(3S)-3-piperidyl]isoquinoline-3,5-diamine] |
| 0.364 | 0.0518 | 0.352 | 122 | 153 | 16.3 | Cc1cccc(F)c1-c1cc(NC2CCNCC2)c2cc(N)ncc2c1 [Example 1, 7-(2-Fluoro-6-methyl-phenyl)-N5-(4-piperidyl)isoquinoline-3,5-diamine] |
| 1.06 | 0.578 | 6.3 | 238 | 229 | 48 | Cc1cccc(F)c1-c1cc(NC[C@H]2CCCCN2C)c2cc(N)ncc2c1 [Example 56, 7-(2-fluoro-6-methyl-phenyl)-N5-[[(2R)-1-methyl-2-piperidyl]methyl] isoquinoline-3,5-diamine] |
| 0.808 | 0.143 | 0.643 | 878 | 330 | 20.4 | Cc1cccc(F)c1-c1cc(NC2CNC2)c2cc(N)ncc2c1 [Example 3, N5-(azetidin-3-yl)-7-(2-fluoro-6-methyl-phenyl)isoquinoline-3,5-diamine] |
| 5.37 | 1.11 | 8.64 | > 1000 | 1400 | 107 | Cc1cccc(F)c1-c1cc(N2CC[C@@H](N(C)C)C2)c2cc(N)ncc2c1 [Example 58, 5-[(3R)-3-(dimethylamino)pyrrolidin-1-yl]-7-(2-fluoro-6-methyl-phenyl)isoquinolin-3-amine] |
